“And” between values parts separate entries of the source, which are not always exact repeats. Equal values may be shown once.
Experiments:
Test in all cases: LC-HRMS analysis of isoenzyme activity in presence of probe
Format in all cases: biochemical
[1] = molecular target: T1, ALDH1A1 (Homo sapiens, UniProt P00352); details: 1 h incubation, LC-HRMS
T1 construct: E. coli BL21 (DE3) were transformed with the full-length expression vector of each isoform; His-tag; made in house; host or cells: E. coli BL21 (DE3)
T1 sequence (P00352 1-501): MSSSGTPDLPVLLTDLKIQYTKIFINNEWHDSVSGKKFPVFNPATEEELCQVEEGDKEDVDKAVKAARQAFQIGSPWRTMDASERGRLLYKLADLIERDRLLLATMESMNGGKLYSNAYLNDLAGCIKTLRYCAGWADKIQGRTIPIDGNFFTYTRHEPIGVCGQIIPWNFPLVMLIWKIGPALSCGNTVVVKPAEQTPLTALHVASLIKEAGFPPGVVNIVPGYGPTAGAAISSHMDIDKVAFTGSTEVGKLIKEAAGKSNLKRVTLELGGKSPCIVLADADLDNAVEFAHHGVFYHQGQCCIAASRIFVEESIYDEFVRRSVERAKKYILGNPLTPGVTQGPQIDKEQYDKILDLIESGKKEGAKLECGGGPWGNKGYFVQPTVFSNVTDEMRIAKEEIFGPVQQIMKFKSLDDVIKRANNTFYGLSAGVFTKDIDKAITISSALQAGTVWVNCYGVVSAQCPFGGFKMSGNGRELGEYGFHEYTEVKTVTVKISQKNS
Method: (§1) These analyses were carried out by using UPLC-HRMS procedure with Vanquish UPLC system coupled to a Thermo Scientific Q-Exactive Plus, operating in negative electrospray ionization mode. The chromatographic separation was carried out using a Phenomenex Synergi 4 µ Polar-RP 80 A (150 × 2 mm) equipped with a Phenomenex Polar-RP (4 mm × 2 mm) security guard column. The mobile phase consisted of A: acetonitrile 0.1% formic acid and B: 0.1% formic acid. We used a linear elution gradient, starting from 80% of A to 5% A in 3 min, 3 min at 5% A, an equilibration of 4 min for a total run time of 10.00 min, at 300 µl/min flow rate. The autosampler temperature was set at 15 °C, the injection volume was 5 µl and column was maintained at 40 °C. The heated electrospray ionization source was used, with a spray voltage of […], with a capillary temperature of 300 °C, a heater temperature of 350 °C, a sheat gas flow of 45 arbitrary units (AU), an auxiliary gas flow of 10 AU and a sweep gas flow of 0 AU. During the Parallel Reaction Monitoring acquisition in negative ion mode, the instrument operated at 17,500 resolution in presence of the inclusion list (m/z = 596.20384 and m/z = 612.19875 for Probe 10 and Probe 10-COOH respectively; m/z = 534.18819 and m/z = 506.156888 for Probe 11 and Probe 11-COOH respectively) with an automatic gain control target of 2 × 10^5 charges and a maximum injection time of 100 ms. Before injecting the samples, the blanks in the list were analyzed and every biological sample was analyzed in duplicate. The biological samples analyzed were as follow: (1) Enzymatic assay Buffer; (2) Enzymatic assay Buffer + NAD^+; (3) Enzymatic assay Buffer + Probe 10 or Probe 11; (4) Enzymatic assay Buffer + ALDH1A1; (5) Enzymatic assay Buffer + ALDH1A2; (6) Enzymatic assay Buffer + ALDH1A3; (7) Enzymatic assay Buffer + ALDH1A1 + Probe 10 or Probe 11; (8) Enzymatic assay Buffer + ALDH1A2 + Probe 10 or Probe 11; (9) Enzymatic assay Buffer + ALDH1A3 + Probe 10 or Probe 11. All samples were diluted 1:1 with ACN, then 1:100 in ACN-Water 1:1 prior the LC-HRMS analysis.

[2] = molecular target: T2, ALDH1A2 (Homo sapiens, UniProt O94788); details: 1 h incubation, LC-HRMS
T2 construct: E. coli BL21 (DE3) were transformed with the full-length expression vector of each isoform; His-tag; made in house; host or cells: E. coli BL21 (DE3)
T2 sequence (O94788 1-518): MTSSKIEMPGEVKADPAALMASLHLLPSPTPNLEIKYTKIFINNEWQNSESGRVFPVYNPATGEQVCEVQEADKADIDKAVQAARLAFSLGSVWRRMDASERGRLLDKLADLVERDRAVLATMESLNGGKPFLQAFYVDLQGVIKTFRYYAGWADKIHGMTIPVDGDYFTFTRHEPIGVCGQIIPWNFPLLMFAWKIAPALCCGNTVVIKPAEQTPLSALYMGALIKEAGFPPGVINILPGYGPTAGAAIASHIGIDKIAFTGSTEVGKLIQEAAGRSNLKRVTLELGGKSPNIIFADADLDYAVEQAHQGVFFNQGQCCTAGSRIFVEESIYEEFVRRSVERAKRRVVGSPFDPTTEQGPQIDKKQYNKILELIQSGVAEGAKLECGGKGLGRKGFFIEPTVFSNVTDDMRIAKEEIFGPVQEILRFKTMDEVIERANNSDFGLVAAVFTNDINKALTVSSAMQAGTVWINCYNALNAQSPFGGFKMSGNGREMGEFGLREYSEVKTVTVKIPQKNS
Method: as §1

[3] = molecular target: T3, ALDH1A3 (Homo sapiens, UniProt P47895); details: for oxidation of probe to carboxylic derivative / substrate behaviour: 1 h incubation, LC-HRMS
T3 construct: E. coli BL21 (DE3) were transformed with the full-length expression vector of each isoform; His-tag; made in house; host or cells: E. coli BL21 (DE3)
T3 sequence (P47895 1-512): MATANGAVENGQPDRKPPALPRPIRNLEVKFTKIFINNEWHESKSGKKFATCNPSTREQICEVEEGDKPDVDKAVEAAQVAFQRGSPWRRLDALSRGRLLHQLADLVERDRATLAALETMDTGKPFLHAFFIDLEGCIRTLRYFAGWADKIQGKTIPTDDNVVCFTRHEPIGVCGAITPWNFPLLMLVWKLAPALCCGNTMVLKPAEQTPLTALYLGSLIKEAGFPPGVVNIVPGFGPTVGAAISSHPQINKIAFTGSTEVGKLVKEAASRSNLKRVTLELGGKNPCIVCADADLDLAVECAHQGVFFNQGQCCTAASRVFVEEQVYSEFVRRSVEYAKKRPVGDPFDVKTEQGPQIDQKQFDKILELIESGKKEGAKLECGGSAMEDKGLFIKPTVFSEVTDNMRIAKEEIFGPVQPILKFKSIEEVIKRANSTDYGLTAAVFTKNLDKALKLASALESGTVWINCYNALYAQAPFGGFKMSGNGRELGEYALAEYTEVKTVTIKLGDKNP
Method: as §1

SMILES | oxidation of probe to carboxylic derivative / substrate behaviour [1] | oxidation of probe to carboxylic derivative / substrate behaviour [2] | oxidation of probe to carboxylic derivative / substrate behaviour [3] | AREA TIC of Probe 10 ([3]; ALDH1A3, 1 h)
COc1cc(/C=C/C(O)=C/C(=O)/C=C/c2ccc(OCc3cn(CCOc4ccc(C=O)cc4)nn3)c(OC)c2)ccc1O [Probe 10] | fully metabolized | in part | no oxidation could be detected | 17952906 and 17991269 and 13247597 and 14014206
CCOC(=O)Cn1cc(COc2ccc(/C=C/C(=O)/C=C(O)/C=C/c3ccc(O)c(OC)c3)cc2OC)nn1 [Probe 11] | has not been shown to be a substrate | has not been shown to be a substrate | has not been shown to be a substrate | –
